Test results reported in US11279686B2, “Nrf2 activating compounds and uses thereof” (Rigel Pharmaceuticals, Inc., priority 2016, dated 2022).
Counter-ions that a name gives are not always drawn. Like-named read-outs stand apart in the source and are kept apart here.

Assays:
[1] = system: NrF2 (Nuclear factor (erythroid-derived 2)-like 2); test: NrF2 activation in a whole cell nuclear translocation assay; type: cell-based
Description: NrF2 Activation in a Whole Cell Nuclear Translocation Assay
Compounds were tested in a NrF2 (Nuclear factor (erythroid-derived 2)-like 2) translocation assay by adapting the methods set forth in U.S. Pat. No. 8,101,373, the disclosure of which is incorporated herein by reference.

[2] = Glutathione depletion assay (Michael reaction with reduced glutathione followed by 1H NMR); details: 2 equiv. reduced glutathione, d6-DMSO, 35° C.
From the text: See, for example, Lehmann et al. Dimethyfumarate Induces Immunosuppression via Glutathione Depletion and Subsequent Induction of Heme Oxygenase 1, Journal of Investigative Dermatology (2007) 127, 835-845. Accordingly, the present compounds may be assessed in vitro by reaction with glutathione as follows:
(with the top securely fastened).
In all the above cases, dis-appearance of the alkene proton signals from the starting material are used to determine the extent of Michael reaction with glutathione.
As would be understood by those of skill in the art, the above experiments can be repeated by varying the equivalents of reduced glutathione (0.5 to 2 equivalents); the reactions can also be run in a mixture of d6-DMSO and D2O; and the temperature of the reaction can also be varied from room temperature to 35° C. (35° C. being used to mimic body temperature). As used herein “majority reaction” means a greater than 50% reduction in alkene proton signal as observed by ^1H NMR.

[3] = system: experimental autoimmune encephalomyelitis (EAE); test: Experimental autoimmune encephalomyelitis (EAE) animal model; type: in vivo, C57BL/6 mice; details: dosed at 60 mg/kg beginning on the day of immunization
[4] = read-out: NrF2 translocation assay EC50, whole cell nuclear translocation, Table 2
[5] = reference fumarates, read-out: NrF2 activation EC50
[6] = whole cell nuclear translocation, Table 2, read-out: NrF2 translocation assay EC50

| EC50 [1, 6] [nM] | SMILES | also measured |
| --- | --- | --- |
| – | CS(=O)(=O)/C=C/n1nnn(-c2cccnc2)c1=O [Compound 3, (E)-1-(2-(methylsulfonyl)vinyl)-4-(pyridin-3-yl)-1,4-dihydro-5H-tetrazol-5-one] | EC50 [1, 4]: 120 nM |
| – | COC(=O)/C=C/n1nn[nH]c1=O [methyl (E)-3-(5-oxo-4,5-dihydro-1H-tetrazol-1-yl)acrylate] | time to majority reaction with glutathione (greater than 50% reduction in alkene proton signal by 1H NMR) [2]: ≤ 30 h; onset of disease paralysis [3]: significantly prevents |
| – | COC(=O)/C=C/n1nnn(C)c1=O [methyl (E)-3-(4-methyl-5-oxo-4,5-dihydro-1H-tetrazol-1-yl)acrylate] | time to majority reaction with glutathione (greater than 50% reduction in alkene proton signal by 1H NMR) [2]: ≤ 30 h |
| – | COC(=O)/C=C/C(=O)O [Monomethyl fumarate, reference compound] | EC50 [1, 5]: ~127000 nM |
| – | COC(=O)/C=C/C(=O)OC [dimethyl fumarate, reference compound] | EC50 [1, 5]: ~7900 nM |
| 30 | O=c1n(/C=C/S(=O)(=O)c2ccc(F)cc2)nnn1-c1cccnc1 [Compound 19, (E)-1-(2-((4-fluorophenyl)sulfonyl)vinyl)-4-(pyridin-3-yl)-1,4-dihydro-5H-tetrazol-5-one] | – |
| 790 | COC(=O)/C=C\S(=O)(=O)c1ccc(F)cc1 [Compound 6] | – |
| < 390 | CCOC(=O)/C=C/S(=O)(=O)c1ccccc1 [Compound 7] | – |
| 750 | COC(=O)/C=C/S(=O)(=O)c1ccc(NC(C)=O)cc1 [Compound 4] | – |
| 290 | Cc1ccc(S(=O)(=O)/C=C/n2nnn(-c3cccnc3)c2=O)cc1 [Compound 1, (E)-1-(pyridin-3-yl)-4-(2-tosylvinyl)-1,4-dihydro-5H-tetrazol-5-one] | – |
| < 390 | COC(=O)/C=C/S(=O)(=O)c1ccc(Br)cc1 [Compound 8] | – |
| 190 | CCn1nnn(/C=C/S(=O)(=O)c2ccc(C)cc2)c1=O [Compound 16, (E)-1-ethyl-4-(2-tosylvinyl)-1,4-dihydro-5H-tetrazol-5-one] | – |
| 1000 | COC(=O)/C=C/S(C)(=O)=O [Compound 5] | – |
| – | CS(=O)(=O)/C=C/C(=O)O [Compound 15, (E)-3-(methylsulfonyl)acrylic Acid] | EC50 [1, 4]: 44800 nM |
| 170 | Cc1ccc(S(=O)(=O)/C=C/n2nnn(Cc3ccccc3)c2=O)cc1 [Compound 17, (E)-1-benzyl-4-(2-tosylvinyl)-1,4-dihydro-5H-tetrazol-5-one] | – |
| < 390 | COC(=O)/C=C/S(=O)(=O)c1ccc2ccccc2c1 [Compound 9] | – |
| 200 | Cn1nnn(/C=C/S(=O)(=O)c2ccc(F)cc2)c1=O [Compound 18, (E)-1-(2-((4-fluorophenyl)sulfonyl)vinyl)-4-methyl-1,4-dihydro-5H-tetrazol-5-one] | – |
